Measurements taken from ChEMBL document CHEMBL5104121, “Stereoisomeric Pam2CS based TLR2 agonists: synthesis, structural modelling and activity as vaccine adjuvants” (RSC Med Chem, 2022).
Active and inactive are the calls of the source. The calls are words filed in the database; no cut-off is given here. Where a SMILES comes first, the peptide text is derived from it. The star is where a group is joined. Propyl(2R-PamO,3-PamO) = CCCCCCCCCCCCCCCC(=O)OC[C@H](C*)OC(=O)CCCCCCCCCCCCCCC; Palmitoyl = CCCCCCCCCCCCCCCC(=O)*

Experiments:
TLR2/TLR6 [1] = target: T1, TLR2/TLR6 (Homo sapiens, UniProt O60603+Q9Y2C9); assay: Agonist activity at human TLR2/TLR6 expressed in HEK-Blue hTLR2-TLR6 cells by SEAP reporter gene based Quanti-blue assay; assay type: cell-based
T1 sequence (O60603 whole entry): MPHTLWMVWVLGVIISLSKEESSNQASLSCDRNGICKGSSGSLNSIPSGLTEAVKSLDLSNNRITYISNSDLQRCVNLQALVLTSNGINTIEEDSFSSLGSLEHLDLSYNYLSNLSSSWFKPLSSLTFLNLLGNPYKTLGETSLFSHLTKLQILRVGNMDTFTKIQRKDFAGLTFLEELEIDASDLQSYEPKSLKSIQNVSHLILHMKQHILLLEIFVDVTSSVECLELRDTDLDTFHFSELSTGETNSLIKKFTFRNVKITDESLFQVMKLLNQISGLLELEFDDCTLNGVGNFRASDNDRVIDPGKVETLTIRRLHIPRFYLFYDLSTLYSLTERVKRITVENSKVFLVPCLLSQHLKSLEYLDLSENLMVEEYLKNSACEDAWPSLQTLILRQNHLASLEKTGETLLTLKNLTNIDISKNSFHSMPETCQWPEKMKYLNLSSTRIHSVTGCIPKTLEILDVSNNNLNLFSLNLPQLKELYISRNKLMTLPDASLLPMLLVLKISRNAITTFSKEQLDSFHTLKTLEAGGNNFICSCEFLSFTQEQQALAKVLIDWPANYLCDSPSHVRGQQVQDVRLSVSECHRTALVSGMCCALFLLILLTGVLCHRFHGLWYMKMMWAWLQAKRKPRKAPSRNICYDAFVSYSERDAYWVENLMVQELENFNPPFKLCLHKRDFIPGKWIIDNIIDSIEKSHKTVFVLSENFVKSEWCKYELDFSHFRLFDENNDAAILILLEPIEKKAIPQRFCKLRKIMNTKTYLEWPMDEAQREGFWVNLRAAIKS
T1 sequence (Q9Y2C9 whole entry): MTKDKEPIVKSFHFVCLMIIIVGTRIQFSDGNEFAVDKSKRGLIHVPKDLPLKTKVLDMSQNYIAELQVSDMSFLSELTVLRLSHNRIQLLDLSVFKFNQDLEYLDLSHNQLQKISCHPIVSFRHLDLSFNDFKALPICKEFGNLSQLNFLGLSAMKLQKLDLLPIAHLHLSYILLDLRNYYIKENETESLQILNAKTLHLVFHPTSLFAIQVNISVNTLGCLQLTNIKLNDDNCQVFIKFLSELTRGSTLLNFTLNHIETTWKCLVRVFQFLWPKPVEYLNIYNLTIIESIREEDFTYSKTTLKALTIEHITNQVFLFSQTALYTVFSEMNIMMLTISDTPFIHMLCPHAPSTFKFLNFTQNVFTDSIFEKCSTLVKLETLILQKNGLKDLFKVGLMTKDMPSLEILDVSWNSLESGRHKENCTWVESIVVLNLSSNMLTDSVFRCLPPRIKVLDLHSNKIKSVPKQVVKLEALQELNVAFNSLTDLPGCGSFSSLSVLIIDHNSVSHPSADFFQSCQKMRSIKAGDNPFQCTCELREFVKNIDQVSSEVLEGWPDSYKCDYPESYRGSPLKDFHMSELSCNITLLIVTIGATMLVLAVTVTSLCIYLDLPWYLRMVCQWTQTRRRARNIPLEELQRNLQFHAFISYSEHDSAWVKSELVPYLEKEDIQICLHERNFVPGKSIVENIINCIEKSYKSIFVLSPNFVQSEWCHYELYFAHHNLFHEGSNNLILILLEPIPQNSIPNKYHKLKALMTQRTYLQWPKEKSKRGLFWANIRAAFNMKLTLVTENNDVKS

TLR2/TLR6 (Mus musculus) [2] = target: T2, TLR2/TLR6 (Mus musculus) (UniProt Q9QUN7+Q9EPW9); assay: Agonist activity at TLR2/TLR6 in C57BL/6 mouse spleen dendritic cells assessed as increase in CD40 expression incubated for 24 hrs by fluorescence based flow cytometric analysis; assay type: tissue-based; conditions: Dendritic cell, filed as agonist, dose 10-0.1 µg/ml, DDE = dose-dependent effect
TLR2/TLR6 (Mus musculus) [3] = target: T2, TLR2/TLR6 (Mus musculus); assay: Agonist activity at TLR2/TLR6 in C57BL/6 mouse spleen dendritic cells assessed as increase in CD86 expression incubated for 24 hrs by fluorescence based flow cytometric analysis; assay type: tissue-based; conditions: Dendritic cell, filed as agonist, dose 10-0.1 µg/ml, DDE = dose-dependent effect
TLR2/TLR6 (Mus musculus) [4] = target: T2, TLR2/TLR6 (Mus musculus); assay: Agonist activity at TLR2/TLR6 in C57BL/6 mouse spleen B cells assessed as increase in CD86 expression incubated for 24 hrs by fluorescence based flow cytometric analysis; assay type: tissue-based; conditions: B cell, filed as agonist, dose 10-0.1 µg/ml, DDE = dose-dependent effect
TLR2/TLR6 (Mus musculus) [5] = target: T2, TLR2/TLR6 (Mus musculus); assay: Agonist activity at TLR2/TLR6 in C57BL/6 mouse spleen B cells assessed as increase in CD40 expression incubated for 24 hrs by fluorescence based flow cytometric analysis; assay type: tissue-based; conditions: B cell, filed as agonist, dose 10-0.1 µg/ml, DDE = dose-dependent effect
TLR2/TLR6 (Mus musculus) [6] = target: T2, TLR2/TLR6 (Mus musculus); assay: Agonist activity at TLR2/TLR6 in C57BL/6 mouse spleen dendritic cells assessed as increase in CD86 expression at 10 to 0.1 ug/ml incubated for 24 hrs by fluorescence based flow cytometric analysis; assay type: tissue-based; conditions: Dendritic cell, filed as agonist, dose 10-0.1 µg/ml
TLR2/TLR6 (Mus musculus) [7] = target: T2, TLR2/TLR6 (Mus musculus); assay: Agonist activity at TLR2/TLR6 in C57BL/6 mouse spleen B cells assessed as increase in CD86 expression at 10 to 0.1 ug/ml incubated for 24 hrs by fluorescence based flow cytometric analysis; assay type: tissue-based; conditions: B cell, filed as agonist, dose 10-0.1 µg/ml
Mus musculus [8] = assay: Immuno-adjuvant activity in C57BL/6 mouse immunized with recombinant hepatitis B surface antigen assessed as increase in anti-HBs antibody at 10 ug, IM administered twice 2 weeks apart by ELISA analysis; assay type: functional, organism-based; conditions: dose 10.0 µg
TLR2/TLR6 [9] = target: T1, TLR2/TLR6; assay: Agonist activity at TLR2/TLR6 in human PBMC cells assessed as increase in TNF-alpha production at 0.1 ug/ml incubated for 24 hrs; assay type: cell-based; conditions: filed as agonist, dose 0.1 µg/ml
TLR2/TLR6 (Mus musculus) [10] = target: T2, TLR2/TLR6 (Mus musculus); assay: Agonist activity at TLR2/TLR6 in C57BL/6 mouse spleen B cells assessed as increase in CD40 expression at 10 to 0.1 ug/ml incubated for 24 hrs by fluorescence based flow cytometric analysis; assay type: tissue-based; conditions: B cell, filed as agonist, dose 10-0.1 µg/ml
TLR2/TLR6 [11] = target: T1, TLR2/TLR6; assay: Agonist activity at TLR2/TLR6 in human PBMC cells assessed as increase in IL-6 production at 0.1 ug/ml incubated for 24 hrs; assay type: cell-based; conditions: filed as agonist, dose 0.1 µg/ml
TLR2/TLR6 [12] = target: T1, TLR2/TLR6; assay: Agonist activity at TLR2/TLR6 in human PBMC cells assessed as increase in IL-10 production at 0.1 ug/ml incubated for 24 hrs; assay type: cell-based; conditions: filed as agonist, dose 0.1 µg/ml
TLR2/TLR6 (Mus musculus) [13] = target: T2, TLR2/TLR6 (Mus musculus); assay: Agonist activity at TLR2/TLR6 in C57BL/6 mouse spleen dendritic cells assessed as increase in CD40 expression at 10 to 0.1 ug/ml incubated for 24 hrs by fluorescence based flow cytometric analysis; assay type: tissue-based; conditions: Dendritic cell, filed as agonist, dose 10-0.1 µg/ml
Mus musculus [14] = assay: Protection against influenza A/California/04/2009 virus-challenged C57BL/6 mouse assessed as effect on survival at 10 ug, IM administered twice 2 weeks apart along with recombinant influenza A/California/04/2009 HA protein immunization; assay type: functional, organism-based; conditions: dose 10.0 µg
Mus musculus [15] = assay: Immuno-adjuvant activity in C57BL/6 mouse immunized with recombinant hepatitis B surface antigen assessed as increase in IgG2/IgG1 ratio at 10 ug, IM administered twice 2 weeks apart by ELISA analysis; assay type: functional, organism-based; conditions: dose 10.0 µg
Mus musculus [16] = assay: Protection against influenza A/California/04/2009 virus-challenged C57BL/6 mouse assessed as effect on body weight at 10 ug, IM administered twice 2 weeks apart along with recombinant influenza A/California/04/2009 HA protein immunization; assay type: functional, organism-based; conditions: dose 10.0 µg
Mus musculus [17] = assay: Immuno-adjuvant activity in C57BL/6 mouse immunized with recombinant influenza A/California/04/2009 HA protein assessed as increase in anti-HAs antibody at 10 ug, IM administered twice 2 weeks apart by ELISA analysis; assay type: functional, organism-based; conditions: dose 10.0 µg

SMILES	EC50 (TLR2/TLR6 [1])	Activity (Mus musculus [8])	Activity (TLR2/TLR6 [9])	Activity (TLR2/TLR6 [11])	Activity (TLR2/TLR6 [12])	further results
CCCCCCCCCCCCCCCC(=O)OCC(CSC[C@H](NC(=O)OC(C)(C)C)C(=O)N[C@@H](COC(C)(C)C)C(=O)OC)OC(=O)CCCCCCCCCCCCCCC (mixture of isomers)	5640 nM					
CCCCCCCCCCCCCCCC(=O)OC[C@@H](CSC[C@H](NC(=O)OC(C)(C)C)C(=O)N[C@@H](COC(C)(C)C)C(=O)OC)OC(=O)CCCCCCCCCCCCCCC	4270 nM					
CCCCCCCCCCCCCCCC(=O)OC[C@@H](CSC[C@H](N)C(=O)N[C@@H](CO)C(=O)OC)OC(=O)CCCCCCCCCCCCCCC	134 nM					Activity (TLR2/TLR6 (Mus musculus) [2]): Dde; Activity (TLR2/TLR6 (Mus musculus) [3]): Dde; Activity (TLR2/TLR6 (Mus musculus) [4]): Dde; Activity (TLR2/TLR6 (Mus musculus) [5]): Dde
CCCCCCCCCCCCCCCC(=O)N[C@@H](CSC[C@@H](COC(=O)CCCCCCCCCCCCCCC)OC(=O)CCCCCCCCCCCCCCC)C(=O)N[C@@H](CO)C(=O)N[C@@H](CCCCN)C(=O)N[C@@H](CCCCN)C(=O)N[C@@H](CCCCN)C(=O)N[C@@H](CCCCN)C(=O)O (Palmitoyl-C(Propyl(2R-PamO,3-PamO))SKKKK-OH)	19.3 nM	Active	Active	Active	Active	Activity (TLR2/TLR6 (Mus musculus) [6]): Active; Activity (TLR2/TLR6 (Mus musculus) [7]): Active; Activity (TLR2/TLR6 (Mus musculus) [10]): Active; Activity (TLR2/TLR6 (Mus musculus) [13]): Active
CCCCCCCCCCCCCCCC(=O)OC[C@H](CSC[C@H](NC(=O)OC(C)(C)C)C(=O)N[C@@H](COC(C)(C)C)C(=O)OC)OC(=O)CCCCCCCCCCCCCCC	5870 nM					Activity (TLR2/TLR6 (Mus musculus) [6]): Active; Activity (TLR2/TLR6 (Mus musculus) [7]): Active
CCCCCCCCCCCCCCCC(=O)OC[C@H](CSC[C@H](NC(C)=O)C(=O)N[C@@H](CO)C(=O)OC)OC(=O)CCCCCCCCCCCCCCC	0.8 nM	Active	Active	Active	Active	Activity (Mus musculus [14]): Active; Activity (Mus musculus [15]): Active; Activity (Mus musculus [16]): Active; Activity (Mus musculus [17]): Active
CCCCCCCCCCCCCCCC(=O)OC[C@@H](CSC[C@H](NC(C)=O)C(=O)N[C@@H](CO)C(=O)OC)OC(=O)CCCCCCCCCCCCCCC	252 nM		Active	Active	Active	
CCCCCCCCCCCCCCCC(=O)OC[C@H](CSC[C@H](N)C(=O)N[C@@H](CO)C(=O)N[C@@H](CCCCN)C(=O)N[C@@H](CCCCN)C(=O)N[C@@H](CCCCN)C(=O)N[C@@H](CCCCN)C(=O)O)OC(=O)CCCCCCCCCCCCCCC (H-C(Propyl(2R-PamO,3-PamO))SKKKK-OH)	0.3 nM	Active	Active	Active	Active	Activity (TLR2/TLR6 (Mus musculus) [6]): Active; Activity (TLR2/TLR6 (Mus musculus) [7]): Active; Activity (TLR2/TLR6 (Mus musculus) [10]): Active; Activity (TLR2/TLR6 (Mus musculus) [13]): Active
CCCCCCCCCCCCCCCC(=O)OCC(CSC[C@H](N)C(=O)N[C@@H](CO)C(=O)OC)OC(=O)CCCCCCCCCCCCCCC (mixture of isomers)	1 nM		Active	Active	Active	Activity (Mus musculus [14]): Active; Activity (Mus musculus [16]): Active; Activity (Mus musculus [17]): Active
CCCCCCCCCCCCCCCC(=O)OC[C@H](CSC[C@H](N)C(=O)N[C@@H](CO)C(=O)OC)OC(=O)CCCCCCCCCCCCCCC	0.4 nM	Active	Active	Active	Active	Activity (Mus musculus [14]): Active; Activity (Mus musculus [15]): Active; Activity (TLR2/TLR6 (Mus musculus) [2]): Dde; Activity (Mus musculus [16]): Active; Activity (Mus musculus [17]): Active; Activity (TLR2/TLR6 (Mus musculus) [3]): Dde; Activity (TLR2/TLR6 (Mus musculus) [4]): Dde; Activity (TLR2/TLR6 (Mus musculus) [5]): Dde
CCCCCCCCCCCCCCCC(=O)OCC(CSC[C@H](NC(C)=O)C(=O)N[C@@H](CO)C(=O)OC)OC(=O)CCCCCCCCCCCCCCC (mixture of isomers)	5 nM		Active	Active	Active	
